# In patent publication EP3782997A1, “FUSED PYRIMIDINE COMPOUNDS AND PHARMACEUTICAL COMPOSITIONS THEREOF FOR THE TREATMENT OF FIBROTIC DISEASES” (Galapagos N.V., priority 2019, dated 2021):
# Biological target: hENPP2 (Homo sapiens, UniProt Q13822)
# Assay: Human ENPP2 (hENPP2) biochemical assay using LPC as substrate
# Settings: 150 µM LPC (palmitoyl 16:0), 37°C for 30 min
# How it was run: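 IC50 came from compound series (top 50 µM, 1/3 steps) incubated 30 min at 37°C with 1 or 3 µg/mL final enzyme and palmitoyl LPC added at 150 µM, pH 8.5 Tris buffer with Ca2+. Choline output measured as quinoneimine dye at 555 nm via coupled oxidase/HRP/TOOS detection.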
row,SMILES,IC50 [nM]
1,"Cc1cc(C)cc(Nc2ncc3c(n2)CN([C@@H]2CCN(C(=O)c4ccc5[nH]c(=O)[nH]c5c4)[C@H](C)C2)C3)c1 [compound 157, 5-[(2R,4R)-4-[2-(3,5-dimethylanilino)-5,7-dihydropyrrolo[3,4-d]pyrimidin-6-yl]-2-methyl-piperidine-1-carbonyl]-1,3-dihydrobenzimidazol-2-one]",0.01 to 100
2,"Cc1cc(C)cc(Nc2ncc3c(n2)CN([C@@H]2CCN(C(=O)c4ccc(S(N)(=O)=O)nc4)[C@H](C)C2)C3)c1 [compound 159, 5-[(2R,4R)-4-[2-(3,5-dimethylanilino)-5,7-dihydropyrrolo[3,4-d]pyrimidin-6-yl]-2-methyl-piperidine-1-carbonyl]pyridine-2-sulfonamide]",500 to 1000
3,"Cc1cc(C)cc(Nc2ncc3c(n2)CN([C@@H]2CCN(C(=O)c4cn(C)nn4)[C@H](C)C2)C3)c1 [compound 161, [(2R,4R)-4-[2-(3,5-dimethylanilino)-5,7-dihydropyrrolo[3,4-d]pyrimidin-6-yl]-2-methyl-1-piperidyl]-(1-methyltriazol-4-yl)methanone]",> 1000
4,"Cc1cc(C)cc(Nc2ncc3c(n2)CCN(C2CCN(C(=O)c4c[nH]nn4)CC2)C3)c1 [compound 162, [4-[2-(3,5-dimethylanilino)-7,8-dihydro-5H-pyrido[4,3-d]pyrimidin-6-yl]-1-piperidyl]-(1H-triazol-4-yl)methanone]",> 1000
5,"Cc1cc(C)cc(Nc2ncc3c(n2)CN([C@@H]2CCN(C(=O)c4cc5nn[nH]c5cc4C)[C@H](C)C2)C3)c1 [compound 163, [(2R,4R)-4-[2-(3,5-dimethylanilino)-5,7-dihydropyrrolo[3,4-d]pyrimidin-6-yl]-2-methyl-1-piperidyl]-(6-methyl-1H-benzotriazol-5-yl)methanone]",0.01 to 100
6,"C[C@@H]1C[C@@H](N2Cc3cnc(Nc4ccccc4)nc3C2)CCN1C(=O)c1ccc2[nH]nnc2c1 [compound 165, [(2R,4S)-4-(2-anilino-5,7-dihydropyrrolo[3,4-d]pyrimidin-6-yl)-2-methyl-1-piperidyl]-(1H-benzotriazol-5-yl)methanone]",> 1000
7,"C[C@@H]1C[C@H](N2Cc3cnc(Nc4ccccc4)nc3C2)CCN1C(=O)c1ccc2[nH]nnc2c1 [compound 166, [(2R,4R)-4-(2-anilino-5,7-dihydropyrrolo[3,4-d]pyrimidin-6-yl)-2-methyl-1-piperidyl]-(1H-benzotriazol-5-yl)methanone]",100 to 500
8,"C[C@@H]1C[C@@H](N2Cc3cnc(Nc4ccc(S(F)(F)(F)(F)F)cc4)nc3C2)CCN1C(=O)c1ccnc(NS(C)(=O)=O)c1 [compound 178, N-[4-[(2R,4S)-2-methyl-4-[2-[4-(pentafluoro-λ^6-sulfanyl)anilino]-5,7-dihydropyrrolo[3,4-d]pyrimidin-6-yl]piperidine-1-carbonyl]-2-pyridyl]methanesulfonamide]",0.01 to 100
9,"C[C@@H]1C[C@H](N2Cc3cnc(Nc4ccc(Cl)cc4)nc3C2)CCN1C(=O)c1ccnc(NS(C)(=O)=O)c1 [compound 179, N-[4-[(2R,4R)-4-[2-(4-chloroanilino)-5,7-dihydropyrrolo[3,4-d]pyrimidin-6-yl]-2-methyl-piperidine-1-carbonyl]-2-pyridyl]methanesulfonamide]",0.01 to 100
10,"COc1cc(C)cc(Nc2ncc3c(n2)CN([C@@H]2CCN(C(=O)c4cc5nn[nH]c5cc4C)[C@H](C)C2)C3)c1 [compound 184, [(2R,4R)-4-[2-(3-methoxy-5-methyl-anilino)-5,7-dihydropyrrolo[3,4-d]pyrimidin-6-yl]-2-methyl-1-piperidyl]-(6-methyl-1H-benzotriazol-5-yl)methanone]",0.01 to 100
11,"COc1cc(C)cc(Nc2ncc3c(n2)CN([C@H]2CCN(C(=O)c4cc5nn[nH]c5cc4C)[C@H](C)C2)C3)c1 [compound 185, [(2R,4S)-4-[2-(3-methoxy-5-methyl-anilino)-5,7-dihydropyrrolo[3,4-d]pyrimidin-6-yl]-2-methyl-1-piperidyl]-(6-methyl-1H-benzotriazol-5-yl)methanone]",0.01 to 100
12,"C[C@@H]1C[C@H](N2Cc3cnc(Nc4ccc(F)cc4)nc3C2)CCN1C(=O)c1ccnc(NS(C)(=O)=O)c1 [compound 188, N-[4-[(2R,4R)-4-[2-(4-fluoroanilino)-5,7-dihydropyrrolo[3,4-d]pyrimidin-6-yl]-2-methyl-piperidine-1-carbonyl]-2-pyridyl]methanesulfonamide]",0.01 to 100

# The remaining lines, values ahead:
row,IC50 [nM],SMILES
1,0.01 to 100,"Cc1cc(C)cc(Nc2ncc3c(n2)CN([C@@H]2CCN(C(=O)c4ccc5[nH]nnc5c4C)[C@H](C)C2)C3)c1 [compound 168, [(2R,4R)-4-[2-(3,5-dimethylanilino)-5,7-dihydropyrrolo[3,4-d]pyrimidin-6-yl]-2-methyl-1-piperidyl]-(4-methyl-1H-benzotriazol-5-yl)methanone]"
2,100 to 500,"COc1cccc(Nc2ncc3c(n2)CN([C@H]2CCN(C(=O)c4ccc5[nH]nnc5c4)[C@H](C)C2)C3)c1 [compound 170, 1H-benzotriazol-5-yl-[(2R,4S)-4-[2-(3-methoxyanilino)-5,7-dihydropyrrolo[3,4-d]pyrimidin-6-yl]-2-methyl-1-piperidyl]methanone]"
3,0.01 to 100,"COc1cccc(Nc2ncc3c(n2)CN([C@@H]2CCN(C(=O)c4ccc5[nH]nnc5c4)[C@H](C)C2)C3)c1 [compound 171, 1H-benzotriazol-5-yl-[(2R,4R)-4-[2-(3-methoxyanilino)-5,7-dihydropyrrolo[3,4-d]pyrimidin-6-yl]-2-methyl-1-piperidyl]methanone]"
4,> 1000,"C[C@@H]1C[C@H](N2Cc3cnc(Nc4ccc(F)cc4)nc3C2)CCN1C(=O)c1c[nH]nn1 [compound 173, [(2R,4R)-4-[2-(4-fluoroanilino)-5,7-dihydropyrrolo[3,4-d]pyrimidin-6-yl]-2-methyl-1-piperidyl]-(1H-triazol-4-yl)methanone]"
5,> 1000,"Cc1cc(C)cc(Nc2ncc3c(n2)CCN(C2CCN(C(=O)c4ccnc(NS(C)(=O)=O)c4)CC2)C3)c1 [compound 174, N-[4-[4-[2-(3,5-dimethylanilino)-7,8-dihydro-5H-pyrido[4,3-d]pyrimidin-6-yl]piperidine-1-carbonyl]-2-pyridyl]methanesulfonamide]"
6,0.01 to 100,"C[C@@H]1C[C@H](N2Cc3cnc(Nc4ccc(C(F)(F)F)cc4)nc3C2)CCN1C(=O)c1c[nH]nn1 [compound 175, [(2R,4R)-2-methyl-4-[2-[4-(trifluoromethyl)anilino]-5,7-dihydropyrrolo[3,4-d]pyrimidin-6-yl]-1-piperidyl]-(1H-triazol-4-yl)methanone]"
7,0.01 to 100,"Cc1cc(C)cc(Nc2ncc3c(n2)CN([C@@H]2CCN(C(=O)c4nn[nH]c4C)[C@H](C)C2)C3)c1 [compound 176, [(2R,4R)-4-[2-(3,5-dimethylanilino)-5,7-dihydropyrrolo[3,4-d]pyrimidin-6-yl]-2-methyl-1-piperidyl]-(5-methyl-1H-triazol-4-yl)methanone]"
8,0.01 to 100,"C[C@@H]1C[C@H](N2Cc3cnc(Nc4ccc(S(F)(F)(F)(F)F)cc4)nc3C2)CCN1C(=O)c1ccnc(NS(C)(=O)=O)c1 [compound 177, N-[4-[(2R,4R)-2-methyl-4-[2-[4-(pentafluoro-λ^6-sulfanyl)anilino]-5,7-dihydropyrrolo[3,4-d]pyrimidin-6-yl]piperidine-1-carbonyl]-2-pyridyl]methanesulfonamide]"
9,100 to 500,"C[C@@H]1C[C@@H](N2Cc3cnc(Nc4ccc(Cl)cc4)nc3C2)CCN1C(=O)c1ccnc(NS(C)(=O)=O)c1 [compound 180, N-[4-[(2R,4S)-4-[2-(4-chloroanilino)-5,7-dihydropyrrolo[3,4-d]pyrimidin-6-yl]-2-methyl-piperidine-1-carbonyl]-2-pyridyl]methanesulfonamide]"
10,0.01 to 100,"Cc1ccc(Nc2ncc3c(n2)CN([C@@H]2CCN(C(=O)c4ccnc(NS(C)(=O)=O)c4)[C@H](C)C2)C3)cc1 [compound 181, N-[4-[(2R,4R)-2-methyl-4-[2-(4-methylanilino)-5,7-dihydropyrrolo[3,4-d]pyrimidin-6-yl]piperidine-1-carbonyl]-2-pyridyl]methanesulfonamide]"
11,500 to 1000,"Cc1ccc(Nc2ncc3c(n2)CN([C@H]2CCN(C(=O)c4ccnc(NS(C)(=O)=O)c4)[C@H](C)C2)C3)cc1 [compound 182, N-[4-[(2R,4S)-2-methyl-4-[2-(4-methylanilino)-5,7-dihydropyrrolo[3,4-d]pyrimidin-6-yl]piperidine-1-carbonyl]-2-pyridyl]methanesulfonamide]"
12,0.01 to 100,"Cc1cc2[nH]nnc2cc1C(=O)N1CC[C@@H](N2Cc3cnc(Nc4ccc(C(F)(F)F)cc4)nc3C2)C[C@H]1C [compound 183, (6-methyl-1H-benzotriazol-5-yl)-[(2R,4R)-2-methyl-4-[2-[4-(trifluoromethyl)anilino]-5,7-dihydropyrrolo[3,4-d]pyrimidin-6-yl]-1-piperidyl]methanone]"
13,0.01 to 100,"C[C@@H]1C[C@H](N2Cc3cnc(Nc4ccc(C(F)(F)F)cc4)nc3C2)CCN1C(=O)c1ccnc(NS(C)(=O)=O)c1 [compound 186, N-[4-[(2R,4R)-2-methyl-4-[2-[4-(trifluoromethyl)anilino]-5,7-dihydropyrrolo[3,4-d]pyrimidin-6-yl]piperidine-1-carbonyl]-2-pyridyl]methanesulfonamide]"
14,0.01 to 100,"COc1cc(C)cc(Nc2ncc3c(n2)CN([C@@H]2CCN(C(=O)c4ccnc(NS(C)(=O)=O)c4)[C@H](C)C2)C3)c1 [compound 187, N-[4-[(2R,4R)-4-[2-(3-methoxy-5-methyl-anilino)-5,7-dihydropyrrolo[3,4-d]pyrimidin-6-yl]-2-methyl-piperidine-1-carbonyl]-2-pyridyl]methanesulfonamide]"
15,0.01 to 100,"COc1cccc(Nc2ncc3c(n2)CN([C@@H]2CCN(C(=O)c4ccnc(NS(C)(=O)=O)c4)[C@H](C)C2)C3)c1 [compound 189, N-[4-[(2R,4R)-4-[2-(3-methoxyanilino)-5,7-dihydropyrrolo[3,4-d]pyrimidin-6-yl]-2-methyl-piperidine-1-carbonyl]-2-pyridyl]methanesulfonamide]"
